Assay results taken from ChEMBL document CHEMBL5338773, “First-in-Class Selective Inhibitors of the Lysine Acetyltransferase KAT8” (J Med Chem, 2023).
Activity calls are given as the source filed them. No cut-off for these calls is given here.

Experiments:
[1] = biological target: Histone acetyltransferase p300 (Homo sapiens) (UniProt Q09472); experiment: Inhibition of recombinant human KAT3B (1287 to 1673 residues) using histone H3 peptide and [3H]-acetyl-coA as substrates at 200 uM incubated for 1 hrs by liquid scintillation counter analysis
Chain of Histone acetyltransferase p300 (Homo sapiens) (Q09472 whole entry, the tested form may be a part): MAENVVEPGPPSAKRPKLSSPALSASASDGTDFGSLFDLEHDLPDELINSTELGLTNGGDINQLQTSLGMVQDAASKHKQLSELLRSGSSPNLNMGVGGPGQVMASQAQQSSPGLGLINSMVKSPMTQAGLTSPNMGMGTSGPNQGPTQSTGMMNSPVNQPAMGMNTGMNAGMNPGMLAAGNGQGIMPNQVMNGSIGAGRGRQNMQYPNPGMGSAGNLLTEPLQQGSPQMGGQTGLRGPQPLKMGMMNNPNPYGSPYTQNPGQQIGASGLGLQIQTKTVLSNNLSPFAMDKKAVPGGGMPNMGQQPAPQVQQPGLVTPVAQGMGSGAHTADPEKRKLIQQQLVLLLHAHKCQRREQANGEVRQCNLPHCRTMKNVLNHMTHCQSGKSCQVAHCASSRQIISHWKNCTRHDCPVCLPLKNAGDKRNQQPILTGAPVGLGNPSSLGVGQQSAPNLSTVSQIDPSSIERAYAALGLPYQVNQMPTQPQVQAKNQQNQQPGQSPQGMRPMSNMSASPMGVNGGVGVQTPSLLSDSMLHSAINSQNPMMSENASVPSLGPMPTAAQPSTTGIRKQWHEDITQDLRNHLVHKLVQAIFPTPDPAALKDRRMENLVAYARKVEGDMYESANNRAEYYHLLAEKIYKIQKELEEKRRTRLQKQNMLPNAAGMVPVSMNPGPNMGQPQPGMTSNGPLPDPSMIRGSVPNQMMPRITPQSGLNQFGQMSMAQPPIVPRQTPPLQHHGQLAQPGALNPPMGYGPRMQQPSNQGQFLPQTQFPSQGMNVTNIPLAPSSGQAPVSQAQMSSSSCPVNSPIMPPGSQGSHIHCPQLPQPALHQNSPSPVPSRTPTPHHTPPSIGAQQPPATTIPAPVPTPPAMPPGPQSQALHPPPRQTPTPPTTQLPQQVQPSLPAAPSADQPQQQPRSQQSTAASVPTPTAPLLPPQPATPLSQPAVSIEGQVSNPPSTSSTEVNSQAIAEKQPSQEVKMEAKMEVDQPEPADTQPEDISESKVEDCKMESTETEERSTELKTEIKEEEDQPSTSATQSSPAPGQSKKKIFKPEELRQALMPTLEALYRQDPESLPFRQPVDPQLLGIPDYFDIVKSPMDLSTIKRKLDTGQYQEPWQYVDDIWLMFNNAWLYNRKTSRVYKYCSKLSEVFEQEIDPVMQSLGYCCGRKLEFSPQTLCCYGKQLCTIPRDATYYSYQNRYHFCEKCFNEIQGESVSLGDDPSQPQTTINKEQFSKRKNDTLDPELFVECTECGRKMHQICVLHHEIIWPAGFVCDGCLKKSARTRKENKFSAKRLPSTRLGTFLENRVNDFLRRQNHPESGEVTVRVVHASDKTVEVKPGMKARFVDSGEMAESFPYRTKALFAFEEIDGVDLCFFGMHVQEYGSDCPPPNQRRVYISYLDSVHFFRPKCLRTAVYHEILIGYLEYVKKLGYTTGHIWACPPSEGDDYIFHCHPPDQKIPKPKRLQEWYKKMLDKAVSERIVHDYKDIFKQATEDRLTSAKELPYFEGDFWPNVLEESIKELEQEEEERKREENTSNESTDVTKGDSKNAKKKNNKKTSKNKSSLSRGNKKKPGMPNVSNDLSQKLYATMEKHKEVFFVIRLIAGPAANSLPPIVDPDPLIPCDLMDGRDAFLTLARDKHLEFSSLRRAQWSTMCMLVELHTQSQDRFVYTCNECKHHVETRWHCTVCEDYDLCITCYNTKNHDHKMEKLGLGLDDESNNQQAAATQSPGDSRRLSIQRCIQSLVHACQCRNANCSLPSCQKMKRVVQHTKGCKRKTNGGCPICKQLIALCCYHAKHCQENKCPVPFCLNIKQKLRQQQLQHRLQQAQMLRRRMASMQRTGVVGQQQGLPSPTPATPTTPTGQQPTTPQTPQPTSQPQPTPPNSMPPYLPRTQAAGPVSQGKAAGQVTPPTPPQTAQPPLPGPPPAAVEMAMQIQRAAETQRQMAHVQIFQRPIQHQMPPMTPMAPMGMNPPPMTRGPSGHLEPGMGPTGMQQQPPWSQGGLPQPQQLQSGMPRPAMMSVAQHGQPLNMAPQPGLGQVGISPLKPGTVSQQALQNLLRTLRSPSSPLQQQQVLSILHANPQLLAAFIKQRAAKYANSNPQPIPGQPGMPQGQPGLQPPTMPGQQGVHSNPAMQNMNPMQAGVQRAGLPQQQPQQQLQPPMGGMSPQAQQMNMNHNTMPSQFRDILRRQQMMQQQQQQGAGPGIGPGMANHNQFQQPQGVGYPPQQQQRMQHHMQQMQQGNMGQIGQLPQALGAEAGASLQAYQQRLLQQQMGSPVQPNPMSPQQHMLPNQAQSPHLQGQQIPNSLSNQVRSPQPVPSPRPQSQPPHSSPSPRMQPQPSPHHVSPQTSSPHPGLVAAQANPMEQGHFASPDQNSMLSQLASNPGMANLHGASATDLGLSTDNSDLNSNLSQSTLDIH

[2] = biological target: Histone acetyltransferase KAT2B (Homo sapiens) (UniProt Q92831); experiment: Inhibition of recombinant human KAT2B (492 to 658 residues) using histone H3 peptide and [3H]-acetyl-coA as substrates at 200 uM incubated for 1 hrs by liquid scintillation counter analysis
Chain of Histone acetyltransferase KAT2B (Homo sapiens) (Q92831 whole entry, looked up, the tested form may be a part): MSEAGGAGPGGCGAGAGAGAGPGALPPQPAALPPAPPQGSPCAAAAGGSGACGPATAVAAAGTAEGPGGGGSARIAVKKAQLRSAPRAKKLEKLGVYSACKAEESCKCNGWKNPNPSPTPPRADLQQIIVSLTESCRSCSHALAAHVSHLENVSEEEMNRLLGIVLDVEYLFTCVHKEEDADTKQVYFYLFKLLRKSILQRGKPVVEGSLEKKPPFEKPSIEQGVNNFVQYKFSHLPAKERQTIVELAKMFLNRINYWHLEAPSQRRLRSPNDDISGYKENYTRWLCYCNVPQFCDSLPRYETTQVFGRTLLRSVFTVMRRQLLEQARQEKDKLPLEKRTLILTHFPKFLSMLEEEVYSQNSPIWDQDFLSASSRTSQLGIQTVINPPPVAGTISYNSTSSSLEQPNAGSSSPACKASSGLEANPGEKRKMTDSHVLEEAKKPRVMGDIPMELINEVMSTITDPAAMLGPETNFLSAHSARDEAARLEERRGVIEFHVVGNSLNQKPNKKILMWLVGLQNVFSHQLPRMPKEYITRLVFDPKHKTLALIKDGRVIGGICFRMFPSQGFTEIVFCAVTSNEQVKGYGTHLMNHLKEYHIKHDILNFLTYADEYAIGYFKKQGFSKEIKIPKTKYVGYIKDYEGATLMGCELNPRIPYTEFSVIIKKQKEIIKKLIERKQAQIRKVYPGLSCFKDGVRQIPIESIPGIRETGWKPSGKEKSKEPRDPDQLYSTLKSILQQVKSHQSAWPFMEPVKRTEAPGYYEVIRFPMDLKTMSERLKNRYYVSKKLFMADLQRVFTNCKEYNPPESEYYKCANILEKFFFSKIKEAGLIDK

[3] = biological target: T1, Histone acetyltransferase KAT8 (Homo sapiens) (UniProt Q9H7Z6); experiment: Inhibition of N-terminal 6His tagged KAT8 (173 to 458 residues) (unknown origin) expressed in Escherichia coli BL21(DE3) using biotinylated histone H4 peptide and [3H]Acetyl-CoA as substrates at 200 uM preincubated for 20 mins followed by substrate addition and measured after 4 hrs by MicroBeta microplate counter analysis; settings: time 260.0 min
T1 sequence (whole entry): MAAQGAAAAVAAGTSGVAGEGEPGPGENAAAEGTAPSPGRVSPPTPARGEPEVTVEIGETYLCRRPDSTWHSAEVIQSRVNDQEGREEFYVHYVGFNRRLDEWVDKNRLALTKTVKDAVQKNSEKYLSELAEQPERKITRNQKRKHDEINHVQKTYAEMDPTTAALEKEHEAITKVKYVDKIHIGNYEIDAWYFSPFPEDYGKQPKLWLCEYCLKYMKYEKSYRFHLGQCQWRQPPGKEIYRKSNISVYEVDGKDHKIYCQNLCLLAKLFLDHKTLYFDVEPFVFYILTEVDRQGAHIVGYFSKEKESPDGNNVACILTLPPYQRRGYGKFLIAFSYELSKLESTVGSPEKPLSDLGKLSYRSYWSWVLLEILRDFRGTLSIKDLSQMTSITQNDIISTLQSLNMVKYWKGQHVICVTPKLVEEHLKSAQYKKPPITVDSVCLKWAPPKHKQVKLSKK

[4] = Inhibition of human recombinant KDAC8
[5] = species: Homo sapiens; experiment: Inhibition of human recombinant KDAC1 using Boc-Lys-(Ac)-AMC as substrate at 50 to 100 uM incubated for 45 mins by fluorescence microplate reader analysis; settings: dose 50-100 µM
[6] = biological target: Histone deacetylase 2 (Homo sapiens) (UniProt Q92769); experiment: Inhibition of human recombinant KDAC2 using Boc-Lys-(Ac)-AMC as substrate at 50 to 100 uM incubated for 45 mins by fluorescence microplate reader analysis; settings: dose 50-100 µM
Chain of Histone deacetylase 2 (Homo sapiens) (Q92769 whole entry): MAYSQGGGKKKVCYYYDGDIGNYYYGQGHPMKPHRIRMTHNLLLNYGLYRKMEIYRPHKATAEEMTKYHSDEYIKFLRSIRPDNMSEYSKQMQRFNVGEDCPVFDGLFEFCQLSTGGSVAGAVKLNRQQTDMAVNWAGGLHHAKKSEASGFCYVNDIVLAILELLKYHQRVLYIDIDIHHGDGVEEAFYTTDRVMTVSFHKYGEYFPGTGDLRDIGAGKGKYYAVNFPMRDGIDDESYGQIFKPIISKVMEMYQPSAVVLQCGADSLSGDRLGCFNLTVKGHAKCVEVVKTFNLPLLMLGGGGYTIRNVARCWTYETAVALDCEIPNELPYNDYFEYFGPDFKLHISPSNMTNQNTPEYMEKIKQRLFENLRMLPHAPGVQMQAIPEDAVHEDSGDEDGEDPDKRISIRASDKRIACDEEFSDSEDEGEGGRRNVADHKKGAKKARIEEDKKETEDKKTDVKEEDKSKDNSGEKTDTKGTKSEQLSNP

[7] = biological target: Histone deacetylase 3 (Homo sapiens) (UniProt O15379); experiment: Inhibition of human recombinant KDAC3 using Boc-Lys-(Ac)-AMC as substrate at 50 to 100 uM incubated for 45 mins by fluorescence microplate reader analysis; settings: dose 50-100 µM
Chain of Histone deacetylase 3 (Homo sapiens) (O15379 whole entry): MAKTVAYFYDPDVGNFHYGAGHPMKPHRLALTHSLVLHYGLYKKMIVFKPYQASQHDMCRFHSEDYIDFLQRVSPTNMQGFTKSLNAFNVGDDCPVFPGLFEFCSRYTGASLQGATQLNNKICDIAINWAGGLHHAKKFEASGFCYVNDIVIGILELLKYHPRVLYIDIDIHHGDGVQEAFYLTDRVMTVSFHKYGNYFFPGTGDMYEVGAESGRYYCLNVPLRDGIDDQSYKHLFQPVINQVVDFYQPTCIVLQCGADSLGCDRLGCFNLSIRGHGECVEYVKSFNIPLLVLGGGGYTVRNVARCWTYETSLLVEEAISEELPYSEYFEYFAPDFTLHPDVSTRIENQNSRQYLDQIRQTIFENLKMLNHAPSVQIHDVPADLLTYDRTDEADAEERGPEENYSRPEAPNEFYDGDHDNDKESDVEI

[8] = biological target: T2, Protein deacetylase HDAC6 (Homo sapiens) (UniProt Q9UBN7); experiment: Inhibition of human recombinant KDAC6 using Boc-Lys-(Ac)-AMC as substrate at 50 to 100 uM incubated for 45 mins by fluorescence microplate reader analysis; settings: dose 50-100 µM
T2 sequence (whole entry): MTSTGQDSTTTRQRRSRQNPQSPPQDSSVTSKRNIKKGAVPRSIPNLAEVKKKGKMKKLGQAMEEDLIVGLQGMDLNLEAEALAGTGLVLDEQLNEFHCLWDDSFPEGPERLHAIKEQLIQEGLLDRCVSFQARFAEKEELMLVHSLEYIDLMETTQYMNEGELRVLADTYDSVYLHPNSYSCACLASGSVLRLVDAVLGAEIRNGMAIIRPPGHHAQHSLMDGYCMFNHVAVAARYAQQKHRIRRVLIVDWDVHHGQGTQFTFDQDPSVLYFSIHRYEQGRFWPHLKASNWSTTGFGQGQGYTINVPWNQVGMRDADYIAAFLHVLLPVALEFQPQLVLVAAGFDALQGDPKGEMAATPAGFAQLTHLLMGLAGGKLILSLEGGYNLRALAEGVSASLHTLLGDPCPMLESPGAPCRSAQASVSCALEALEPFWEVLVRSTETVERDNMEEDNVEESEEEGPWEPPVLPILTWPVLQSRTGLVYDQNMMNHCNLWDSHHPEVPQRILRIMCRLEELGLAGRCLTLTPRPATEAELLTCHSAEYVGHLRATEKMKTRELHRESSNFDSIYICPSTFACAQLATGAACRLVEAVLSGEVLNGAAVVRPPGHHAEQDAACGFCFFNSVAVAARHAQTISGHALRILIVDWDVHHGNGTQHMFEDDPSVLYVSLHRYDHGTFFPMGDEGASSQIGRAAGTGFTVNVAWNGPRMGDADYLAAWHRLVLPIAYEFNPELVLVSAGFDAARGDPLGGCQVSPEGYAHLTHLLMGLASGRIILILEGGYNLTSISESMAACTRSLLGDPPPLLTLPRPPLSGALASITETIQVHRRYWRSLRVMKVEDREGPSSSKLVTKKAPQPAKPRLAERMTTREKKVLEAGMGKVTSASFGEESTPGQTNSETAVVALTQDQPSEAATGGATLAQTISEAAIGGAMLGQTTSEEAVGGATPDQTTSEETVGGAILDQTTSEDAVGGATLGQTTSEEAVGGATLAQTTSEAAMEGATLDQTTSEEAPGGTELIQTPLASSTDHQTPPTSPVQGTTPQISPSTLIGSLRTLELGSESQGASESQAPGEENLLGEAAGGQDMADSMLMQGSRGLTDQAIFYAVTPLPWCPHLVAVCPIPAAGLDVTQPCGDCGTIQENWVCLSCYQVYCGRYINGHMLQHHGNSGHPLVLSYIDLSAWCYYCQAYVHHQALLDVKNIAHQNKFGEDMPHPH

[9] = species: Homo sapiens; experiment: Inhibition of human recombinant KDAC8 using Boc-Lys-(Ac)-AMC as substrate at 50 to 100 uM incubated for 45 mins by fluorescence microplate reader analysis; settings: dose 50-100 µM

Row | Structure (SMILES) | inhibition [1] | inhibition [2] | further results
1 | CC1=NN(c2ccc(C(=O)O)cc2)C(=O)/C1=C\c1cc[nH]c1 | inactive | inactive | 
2 | CC1=NN(c2ccc(C(=O)O)cc2)C(=O)/C1=C\c1cccn1C |  | inactive | 
3 | CC1=NN(c2ccccc2)C(=O)/C1=C\c1cc(C(=O)c2ccccc2[N+](=O)[O-])c[nH]1 |  |  | inhibition [3]: inactive
4 | CC1=NN(c2ccc(C(=O)O)cc2)C(=O)/C1=C\c1ccn[nH]1 | inactive | inactive | 
5 | CC1=NN(c2ccc(C(=O)O)cc2)C(=O)C1=Cc1ccco1 (mixture of isomers) |  | inactive | 
6 | CC1=NN(c2ccc(C(=O)O)cc2)C(=O)/C1=C\c1cc(C(=O)c2ccc([N+](=O)[O-])cc2)c[nH]1 |  |  | inhibition [3]: inactive
7 | CC1=NN(c2ccc(C(=O)NCCCN3CCCC3)cc2)C(=O)/C1=C\c1ccc[nH]1 |  |  | inhibition [3]: inactive
8 | Cc1nn(-c2ccc(C(=O)O)cc2)c(O)c1Cc1ccccc1 | inactive | inactive | 
9 | CC1=NN(c2ccc(C(=O)O)cc2)C(=O)/C1=C\c1cc(C(=O)c2ccc(Cl)cc2)c[nH]1 |  |  | inhibition [3]: inactive
10 | CC1=NN(c2ccc(C(=O)O)cc2)C(=O)/C1=C\c1cc(C(=O)c2ccccc2[N+](=O)[O-])c[nH]1 |  | inactive | 
11 | CC1=NN(c2ccc(C(=O)O)cc2)C(=O)/C1=C\c1ccc(-c2cc(C)c(C)cc2[N+](=O)[O-])o1 |  | inactive | IC50 [4]: 7 µM; inhibition [3]: inactive; inhibition [5]: Active; inhibition [6]: Active; inhibition [7]: Active; inhibition [8]: Active; inhibition [9]: Active
12 | CC1=NN(c2ccc(C(=O)O)cc2)C(=O)/C1=C\c1cc(C(=O)c2ccccc2O)c[nH]1 |  |  | inhibition [3]: inactive
13 | CCCCCCCc1ccc(CCc2cccc(O)c2C(=O)O)cc1 |  | inactive | 
14 | CC1=NN(c2ccc(C(=O)O)cc2)C(=O)/C1=C\c1cccs1 |  | inactive | 
15 | Cc1nn(-c2ccc(C(=O)O)cc2)c(O)c1Cc1ccc[nH]1 | inactive | inactive | 
16 | CC1=NN(c2ccc(C(=O)O)cc2)C(=O)/C1=C\c1c[nH]cn1 |  | inactive | 
17 | CC1=NN(c2ccccc2)C(=O)/C1=C\c1cc(C(=O)c2ccccc2)c[nH]1 |  |  | inhibition [3]: inactive
18 | CC1=NN(c2ccc(C(=O)O)cc2)C(=O)/C1=C(/C)c1ccc[nH]1 | inactive | inactive | 
19 | CC1=NN(c2ccc(C(=O)O)cc2)C(=O)C1 |  |  | inhibition [3]: inactive

Continued, in another order:

Row | inhibition [1] | inhibition [2] | Structure (SMILES) | further results
20 |  | inactive | CC1=NN(c2ccc(C(=O)O)cc2)C(=O)/C1=C\c1cc(C(=O)c2ccccc2)c[nH]1 | 
21 | inactive | inactive | CC(C)C1=NN(c2ccc(C(=O)O)cc2)C(=O)/C1=C\c1ccc[nH]1 | 
22 |  | inactive | CC1=NN(c2ccc(C(=O)O)cc2)C(=O)/C1=C\c1c[nH]c2ccccc12 | 
23 | inactive | inactive | CC1=NN(c2cccc(C(=O)O)c2)C(=O)/C1=C\c1ccc[nH]1 | 
24 |  | inactive | CC1=NN(c2ccc(C(=O)O)cc2)C(=O)/C1=C\c1cccn1-c1ccccc1 | 
25 |  | inactive | CC1=NN(c2ccc(C(=O)O)cc2)C(=O)/C1=C\c1cc(C(=O)c2ccccc2Cl)c[nH]1 | 
26 |  | inactive | CC1=NN(c2ccc(C(=O)O)cc2)C(=O)/C1=C\c1cc(C(=O)c2ccccc2C)c[nH]1 | 
27 | inactive | inactive | CC1=NN(c2ccc(C(=O)N(C)C)cc2)C(=O)/C1=C\c1ccc[nH]1 | 
28 | inactive | inactive | CC1=NN(c2ccc(C(=O)O)cc2)C(=O)/C1=C\c1ccccc1 | 
29 | inactive | inactive | O=C(O)c1ccc(N2N=C(Cc3ccccc3)/C(=C/c3ccc[nH]3)C2=O)cc1 | 
30 |  | inactive | CC1=NN(c2ccc(C(=O)O)cc2)C(=O)/C1=C\c1cc2ccccc2[nH]1 | 
31 | inactive | inactive | CC1=NN(c2ccc(C(N)=O)cc2)C(=O)/C1=C\c1ccc[nH]1 | 
32 | inactive | inactive | CC1=NN(c2ccc(C(=O)NCc3ccccc3)cc2)C(=O)/C1=C\c1ccc[nH]1 | inhibition [3]: inactive
